Measured values reported in patent US8492582B2, “N-acyl anthranilic acid derivative or salt thereof” (Toyama Chemical Co., Ltd., priority 2009, dated 2013).
Structures can show the parent of a compound that is named as a salt.

system: type I collagen α1 chain mRNA in WI-38 cells; assay: Type I collagen α1 chain mRNA expression inhibition test; assay type: cell-based; settings: Homo sapiens, WI-38, 24 h, read-out: Inhibition rate (%) at 10 μmol/L
Description: Human embryonic lung fibroblast cell line WI-38 cells were suspended in a Dulbecco's modified Eagle's medium containing 10% fetal calf serum, and 7.5×10^4 cells were inoculated on a 12-well plate and cultured for 3 days, or 1.5×10^5 cells were inoculated and cultured for 2 days. After the growth of the cells to a subconfluent state, the culture medium was changed to a Dulbecco's modified Eagle's medium containing 0.4% fetal calf serum and 50 μg/mL ascorbic acid, and the cells were further cultured for 24 hours. Then, a test compound was added thereto, and, one hour later, TGF-β1 was added at a final concentration of 1 ng/mL. Twenty-four hours after the addition, the total RNA was extracted from the cells using an RNA extraction kit (SV Total RNA Isolation System, Promega), and cDNA was synthesized using a reverse transcriptase (ReverTra Ace, TOYOBO). The expression level of the type I collagen al chain mRNA was analyzed with a real-time PCR instrument (ABI PRISM 7700 Sequence Detection System, Applied Biosystems) by a real-time PCR method using a premix reagent of real-time PCR (SYBR Premix Ex Taq or SYBR Premix Ex Taq II (Perfect Real Time), TaKaRa). A PCR reaction was conducted with diluted cDNA as a template, using primers specific for a type I collagen α1 chain gene or a GAPDH gene as an internal standard, and the reaction product was measured. The PCR reaction was conducted by incubation at 95° C. for 10 seconds and 45 cycles of denaturation at 95° C. for 5 seconds and annealing/extension at 60° C. for 30 seconds. The expression level of the type I collagen α1 chain mRNA was corrected with GAPDH and was expressed as a relative value when the expression level obtained in the absence of the test compound was defined as 100%.

How did the inhibition at 10 µM turn out when O=C(Nc1cc(N2CCCCC2)ccc1C(=O)O)c1cncc(-c2ccccc2)c1 [63b, Sodium 2-(5-phenylpyridine-3-carboxamido)-4-(piperidin-1-yl)benzoate] was run?
Its inhibition at 10 µM is 65%.

Which inhibition at 10 µM does the source give for O=C(Nc1cc(-c2ccoc2)ccc1C(=O)O)c1cc(-c2cccnc2)ccc1O [Example 46a, sodium 4-(furan-3-yl)-2-(2-hydroxy-5-(pyridin-3-yl)benzamido)benzoate] here?
Its inhibition at 10 µM is 91%.

Which inhibition at 10 µM does the source give for CN(CCN1CCCC1)c1ccc(O)c(C(=O)Nc2cc(-c3ccccc3)ccc2C(=O)O)c1 [Example 95a, sodium 2-(2-hydroxy-5-(methyl(2-(pyrrolidin-1-yl)ethyl)amino)benzamido)-4-phenylbenzoate] here?
The inhibition at 10 µM was 88%.

How did the inhibition at 10 µM turn out when O=C(Nc1cc(-c2ccccc2OC(F)F)ccc1C(=O)O)c1cncc(-c2ccccc2)c1 [9b] was run?
The inhibition at 10 µM was 84%.

With O=C(Nc1cc(-c2ccccc2F)ccc1C(=O)O)c1cncc(-c2ccccc2)c1 [44b, sodium 4-(2-fluorophenyl)-2-(5-phenylpyridine-3-carboxamido)-benzoate] as the compound, how does the inhibition at 10 µM read?
The inhibition at 10 µM was 93%.

For CN(C)CCN(C)c1ccc(C(=O)Nc2cc(-c3ccccc3)ccc2C(=O)O)c(O)c1 [Example 97a, sodium 2-(4-((2-(dimethylamino)ethyl)(methyl)amino)-2-hydroxybenzamido)-4-phenylbenzoate], which inhibition at 10 µM is on record?
Its inhibition at 10 µM is 83%.

How did the inhibition at 10 µM turn out when O=C(Nc1cc(-c2ccccc2)ccc1C(=O)O)c1cc(-c2ccncc2)ccc1O [Example 19a, sodium 2-(2-hydroxy-5-(pyridin-4-yl)benzamido)-4-phenylbenzoate] was run?
Its inhibition at 10 µM is 83%.

same assay, conditions: Homo sapiens; 10 μmol/L test compound; WI-38 cells, TGF-β1 1 ng/mL, 24 hours; Table 4a; read-out: Inhibition rate (%) at 10 μmol/L

Which inhibition at 10 µM does the source give for O=C(Nc1cc(-c2ccccc2)ccc1C(=O)O)c1cc(-c2ccccn2)ccc1O [Example 27a, 2-(2-hydroxy-5-(pyridin-2-yl)benzamido)-4-phenylbenzoic acid] here?
The inhibition at 10 µM was 98%.

Which inhibition at 10 µM does the source give for O=C(Nc1cc(-c2ccccc2)ccc1C(=O)O)c1cc(-c2ccco2)ccc1O [Example 68a, 2-(5-(furan-2-yl)-2-hydroxybenzamido)-4-phenylbenzoic acid] here?
The inhibition at 10 µM was 98%.

How did the inhibition at 10 µM turn out when Cc1cccc(-c2ccc(C(=O)O)c(NC(=O)c3cc(N4CCOCC4)ccc3O)c2)c1 [201a, 2-(2-Hydroxy-5-(morpholin-4-yl)benzamido)-4-(3-methylphenyl)benzoic acid] was run?
The inhibition at 10 µM was 94%.

With COc1ccccc1-c1ccc(C(=O)O)c(NC(=O)c2cc(-c3ccccn3)ccc2O)c1 [Example 35a, 2-(2-Hydroxy-5-(pyridin-2-yl)benzamido)-4-(2-methoxyphenyl)benzoic acid hydrochloride] as the compound, how does the inhibition at 10 µM read?
Its inhibition at 10 µM is 90%.

O=C(Nc1cc(-c2ccccc2)ccc1C(=O)O)c1cc(Oc2ccccc2)ccc1O [Example 115a, 2-(2-hydroxy-5-phenoxybenzamido)-4-phenylbenzoic acid] was tested. Which inhibition at 10 µM did it give?
The inhibition at 10 µM was 98%.

For O=C(O)c1ccc(-c2ccccc2)cc1NC(=O)c1cccc(-c2cccnc2)c1O [Example 16a, Sodium 2-(2-hydroxy-3-(pyridin-3-yl)benzamido)-4-phenylbenzoate], which inhibition at 10 µM is on record?
Its inhibition at 10 µM is 80%.

For O=C(Nc1cc(-c2ccccc2)ccc1C(=O)O)c1cc(OCCN2CCCCCC2)ccc1O [181a, 2-(5-(2-(Homopiperidin-1-yl)ethoxy)-2-hydroxybenzamido)-4-phenylbenzoic acid hydrochloride], which inhibition at 10 µM is on record?
The inhibition at 10 µM was 74%.

For COc1cccc(-c2ccc(C(=O)O)c(NC(=O)c3cc(N4CCOCC4)ccc3O)c2)c1 [204a, 2-(2-Hydroxy-5-(morpholin-4-yl)benzamido)-4-(3-methoxyphenyl)benzoic acid], which inhibition at 10 µM is on record?
Its inhibition at 10 µM is 89%.

How did the inhibition at 10 µM turn out when O=C(Nc1cc(-c2ccc3c(c2)ONO3)ccc1C(=O)O)c1cc(N2CCOCC2)ccc1O [207a, 4-(Benzo-[1,3]-dioxazol-5-yl)-2-(2-hydroxy-5-(morpholin-4-yl)benzamido)benzoic acid] was run?
The inhibition at 10 µM was 83%.

For O=C(Nc1cc(-c2ccccc2)ccc1C(=O)O)c1cc(-n2ccnc2)ccc1O [Example 34a, 2-(2-Hydroxy-5-(1H-imidazol-1-yl)benzamido)-4-phenylbenzoic acid hydrochloride], which inhibition at 10 µM is on record?
Its inhibition at 10 µM is 82%.

With O=C(Nc1cc(-c2cccc(F)c2)ccc1C(=O)O)c1cc(N2CCOCC2)ccc1O [198a, 4-(3-Fluorophenyl)-2-(2-hydroxy-5-(morpholin-4-yl)benzamido)benzoic acid] as the compound, how does the inhibition at 10 µM read?
The inhibition at 10 µM was 81%.

How did the inhibition at 10 µM turn out when O=C(Nc1cc(-c2ccccc2)ccc1C(=O)O)c1cc(C2CCN(CCO)CC2)ccc1O [225a, 2-(2-hydroxy-5-(1-(2-hydroxyethyl)piperidin-4-yl)benzamido)-4-phenylbenzoic acid] was run?
Its inhibition at 10 µM is 86%.

Which inhibition at 10 µM does the source give for COc1ccc(O)c(C(=O)Nc2cc(-c3ccccc3)ccc2C(=O)O)c1 [Example 7a, 2-(2-Hydroxy-5-methoxybenzamido)-4-phenylbenzoic acid] here?
Its inhibition at 10 µM is 94%.

How did the inhibition at 10 µM turn out when Cc1ccc(-c2ccc(C(=O)O)c(NC(=O)c3cc(N4CCCCC4)ccc3O)c2)cc1 [Example 150a, 2-(2-Hydroxy-5-(piperidin-1-yl)benzamido)-4-(4-methylphenyl)benzoic acid] was run?
The inhibition at 10 µM was 93%.

For Cc1ccc(O)c(C(=O)Nc2cc(-c3ccccc3)ccc2C(=O)O)c1 [Example 4a, 2-(2-Hydroxy-5-methylbenzamido)-4-phenylbenzoic acid], which inhibition at 10 µM is on record?
Its inhibition at 10 µM is 97%.

For CCN(CC)CCN(C)c1ccc(O)c(C(=O)Nc2cc(-c3ccccc3)ccc2C(=O)O)c1 [Example 102a, 2-(5-((2-(Diethylamino)ethyl)(methyl)amino)-2-hydroxybenzamido)-4-phenylbenzoic acid], which inhibition at 10 µM is on record?
Its inhibition at 10 µM is 89%.

For COc1ccccc1-c1ccc(C(=O)O)c(NC(=O)c2cc(-c3cccnc3)ccc2O)c1 [Example 37a, 2-(2-hydroxy-5-(pyridin-3-yl)benzamido)-4-(2-methoxyphenyl)benzoic acid], which inhibition at 10 µM is on record?
The inhibition at 10 µM was 94%.

With CN(C)CCOc1ccc(O)c(C(=O)Nc2cc(-c3ccccc3)ccc2C(=O)O)c1 [Example 109a, 2-(5-(2-(Dimethylamino)ethoxy)-2-hydroxybenzamido)-4-phenylbenzoic acid hydrochloride] as the compound, how does the inhibition at 10 µM read?
The inhibition at 10 µM was 91%.

How did the inhibition at 10 µM turn out when O=C(Nc1cc(-c2ccccc2)ccc1C(=O)O)c1cc(N2CCC2)ccc1O [Example 86a, 2-(5-(Azetidin-1-yl)-2-hydroxybenzamido)-4-phenylbenzoic acid hydrochloride] was run?
Its inhibition at 10 µM is 85%.

For O=C(Nc1cc(-c2ccccc2)ccc1C(=O)O)c1cc(OCCN2CCN(CCCO)CC2)ccc1O [174a, 2-(2-hydroxy-5-(2-(4-(3-hydroxypropyl)piperazin-1-yl)ethoxy)benzamido)-4-phenylbenzoic acid], which inhibition at 10 µM is on record?
The inhibition at 10 µM was 86%.

How did the inhibition at 10 µM turn out when O=C(Nc1cc(-c2ccccc2)ccc1C(=O)O)c1cc(N2CCSCC2)ccc1O [Example 89a, 2-(2-hydroxy-5-(thiomorpholin-4-yl)benzamido)-4-phenylbenzoic acid] was run?
Its inhibition at 10 µM is 98%.

CN(C)CCN(C)Cc1ccc(O)c(C(=O)Nc2cc(-c3ccccc3)ccc2C(=O)O)c1 [Example 134a, 2-(5-(((2-(dimethylamino)ethyl)(methyl)amino)methyl)-2-hydroxybenzamido)-4-phenylbenzoic acid] was tested. Which inhibition at 10 µM did it give?
Its inhibition at 10 µM is 90%.

For CN1CCC(COc2ccc(O)c(C(=O)Nc3cc(-c4ccccc4)ccc3C(=O)O)c2)CC1 [189a, 2-(2-hydroxy-5-(1-methylpiperidin-4-ylmethoxy)benzamido)-4-phenylbenzoic acid hydrochloride], which inhibition at 10 µM is on record?
The inhibition at 10 µM was 95%.

For O=C(Nc1cc(-c2ccc[nH]2)ccc1C(=O)O)c1cc(N2CCCCC2)ccc1O [157a, 2-(2-hydroxy-5-(piperidin-1-yl)benzamido)-4-(1H-pyrrol-2-yl)benzoic acid], which inhibition at 10 µM is on record?
Its inhibition at 10 µM is 84%.

O=C(Nc1cc(-c2ccccc2)ccc1C(=O)O)c1cc(OCCN2CCC(CCO)CC2)ccc1O [180a, 2-(2-Hydroxy-5-(2-(4-(hydroxyethyl)piperidin-1-yl)ethoxy)benzamido)-4-phenylbenzoic acid hydrochloride] was tested. Which inhibition at 10 µM did it give?
Its inhibition at 10 µM is 85%.

For O=C(Nc1cc(-c2ccccc2)ccc1C(=O)O)c1cc(OCCN2CCNCC2)ccc1O [Example 144a, 2-(2-hydroxy-5-(2-(piperazin-1-yl)ethoxy)benzamido)-4-phenylbenzoic acid dimethanesulfonate], which inhibition at 10 µM is on record?
The inhibition at 10 µM was 96%.

same assay, conditions: Homo sapiens; 10 μmol/L test compound; WI-38 cells, TGF-β1 1 ng/mL, 24 hours; Table 4b; read-out: Inhibition rate (%) at 10 μmol/L

O=C(Nc1cc(-c2ccccc2C(F)(F)F)ccc1C(=O)O)c1cncc(-c2ccccc2)c1 [33b, Sodium 2-(5-phenylpyridine-3-carboxamido)-4-(2-(trifluoromethyl)phenyl)benzoate] was tested. Which inhibition at 10 µM did it give?
The inhibition at 10 µM was 78%.

With O=C(Nc1cc(-c2ccccc2)ccc1C(=O)O)c1cccc(-c2ccccc2)n1 [5b, 4-Phenyl-2-(6-phenylpyridine-2-carboxamido)benzoic acid] as the compound, how does the inhibition at 10 µM read?
The inhibition at 10 µM was 72%.

With O=C(Nc1cc(-c2ccccc2)ccc1C(=O)O)c1ccc(-c2ccccc2)nc1 [3b, 4-phenyl-2-(6-phenylpyridine-3-carboxamido)benzoic acid] as the compound, how does the inhibition at 10 µM read?
Its inhibition at 10 µM is 83%.

For Cn1cccc1-c1ccc(C(=O)O)c(NC(=O)c2cncc(-c3ccccc3)c2)c1 [45b, 4-(1-methyl-1H-pyrrol-2-yl)-2-(5-phenylpyridine-3-carboxamido)benzoic acid], which inhibition at 10 µM is on record?
The inhibition at 10 µM was 90%.
